Measured values reported in patent publication US5747500A, “Antiviral 2, 4-pyrimidinedione derivatives” (priority 1993, dated 1998).
≈ marks a conversion by molar mass, not a printed value.

Columns and labels:
HIV = assay: inhibition of HIV-induced cytopathic effect in MT-4 cells (MTT method); type: cell-based; settings: for EC50: Human immunodeficiency virus 1, MT4, HIV-infected MT-4 cells, 1000 CCID50, 4 or 5 day incubation at 37° C., MTT method, read-out: ED50: Effective concentration for the inhibition of the proliferation of HIV by 50%; for S.I.: Selectivity index (CD50/ED50): ratio CD50/ED50, MT-4 cells
Method: The anti-HIV assays were based on the inhibition of the virus-induced cytopathic effect in MT-4 cells as described in J. Virol. Methods, 16, 171 (1987). Briefly, MT-4 cells were suspended in culture medium at 2.5×10^5 cells/ml and infected with 1000 CCID50 (50% cell culture infective dose) of HIV. Immediately, after virus infection, 100 μl of the cell suspension was brought into each well of a flat-bottomedmicrotiter tray containing various concentrations of the test compounds. After a 4 or 5 day incubation at 37° C., the number of viable cells was determined by the 3-(4,5-dimethylthiazol-2-yl)-2,5-diphenyltetrazoliumbromide (MTT) method, as disclosed in J. Virol. Methods, 20, 309 (1988).
ED50 : Effective concentration for the inhibition of the
proliferation of HIV by 50%

[1] = cytotoxicity: viability of mock-infected MT-4 host cells (MTT method); type: cell-based; settings: human, mt-4 cells, read-out: CD50: Cytotoxic concentration that causes death of cells by 50%
Method: The cytotoxicity of the compounds of the present invention was assessed in parallel with their antiviral activity. It was based on the viability of mock-infected host cells as determined by the MTT methods (se J. Virol. Methods, 20, 309 (1988)).
CD50 : Cytotoxic concentration that causes death of cells by 50%

| SMILES | EC50 (HIV) | S.I.: Selectivity index (CD50/ED50) (HIV) | CC50 [1] |
| --- | --- | --- | --- |
| Cc1cc(C)cc(C(=O)c2c(C(C)C)c(=O)[nH]c(=O)n2C/C=C/CO)c1 [Example 76, 1-(4-hydroxy-trans-2-butenyl)-5-isopropyl-6-(3,5-dimethylbenzoyl)-2,4-pyrimidinedione] | < 0.025 µg/mL | > 1,679 | 42 µg/mL (≈ 118 µM) |
| CCc1c(Sc2cc(C)cc(C)c2)n(CC=CC(=O)O)c(=O)[nH]c1=O [Example 77, 1-(carboxyallyl)-5-ethyl-6-(3,5-dimethylphenylthio)-2,4-pyrimidinedione] | < 0.902 µg/mL | > 75 | 68.3 µg/mL (≈ 190 µM) |
| CCc1c(Sc2cc(C)cc(C)c2)n(C/C=C/CO)c(=O)[nH]c1=O [Example 78, 1-(4-hydroxy-trans-2-butenyl)-5-ethyl-6-(3,5-dimethylphenylthio)-2,4-pyrimidinedione] | < 0.97 µg/mL | > 29 | 29 µg/mL (≈ 83.6 µM) |
| CCc1c(C(=O)c2cc(C)cc(C)c2)n(C/C=C/CN=[N+]=[N-])c(=O)[nH]c1=O [Example 79, 1-(4-azido-trans-2-butenyl)-5-ethyl-6-(3,5-dimethylbenzoyl)-2,4-pyrimidinedione] | < 0.009 µg/mL | > 911 | 8.2 µg/mL (≈ 22.3 µM) |
| CCc1c(C(=O)c2cc(C)cc(C)c2)n(C/C=C/COC(C)=O)c(=O)[nH]c1=O [Example 80, 1-(4-acetoxy-trans-2-butenyl)-5-ethyl-6-(3,5-dimethylbenzoyl)-2,4-pyrimidinedione] | < 0.033 µg/mL | > 1,345 | 44.4 µg/mL (≈ 115 µM) |
| CCc1c(C(=O)c2cc(C)cc(C)c2)n(C/C=C/COC)c(=O)[nH]c1=O [Example 82, 1-(4-methoxy-trans-2-butenyl)-5-ethyl-6-(3,5-dimethylbenzoyl)-2,4-pyrimidinedione] | < 0.32 µg/mL | > 134 | 43.1 µg/mL (≈ 121 µM) |
| CCc1c(Oc2cc(C)cc(C)c2)n(C/C=C/CO)c(=O)[nH]c1=O [Example 83, 1-(4-hydroxy-trans-2-butenyl)-5-ethyl-6-(3,5-dimethylphenoxy)-2,4-pyrimidinedione] | < 0.81 µg/mL | > 31 | 25.5 µg/mL (≈ 77.2 µM) |
| CCc1c(C(=O)c2cc(C)cc(C)c2)n(C/C=C/CO)c(=O)[nH]c1=O [Example 84] | < 0.009 µg/mL | > 6,160 | 55.4 µg/mL (≈ 162 µM) |
| CCOCn1c(Cc2cc(C)cc(C)c2)c(CC)c(=O)[nH]c1=O [Ref. 1, 1ethoxymethyl-5-ethyl-6-(3,5-dimethylbenzyl)-2,4-pyrimidinedione, reference compound] | < 0.009 µg/mL | > 4,962 | 44.7 µg/mL (≈ 141 µM) |
| CCc1c(Sc2cc(C)cc(C)c2)n(COCc2ccccc2)c(=O)[nH]c1=O [Ref. 2, 1benzyloxymethyl-5-ethyl-6-(3,5-dimethylphenylthio)-2,4-pyrimidinedione, reference compound] | < 0.009 µg/mL | > 672 | 6.05 µg/mL (≈ 15.3 µM) |
